Experimental data as given in ChEMBL document CHEMBL4130560, “Discovery of Indolinone-Based Multikinase Inhibitors as Potential Therapeutics for Idiopathic Pulmonary Fibrosis” (ACS Med Chem Lett, 2017).
pIC50: −log10 of the molar value.

Key:
[1] = target: Platelet-derived growth factor receptor beta (Homo sapiens, UniProt P09619); test: Inhibition of recombinant PDGFRbeta (unknown origin) by off-chip mobility shift assay
[2] = target: Voltage-gated inwardly rectifying potassium channel KCNH2 (Homo sapiens, UniProt Q12809)
Mus musculus [3] = test: Toxicity in C57 mouse assessed as lethality at 5 mg/kg, iv after 28 days; assay type: organism-based; conditions: in vivo, 672 h
Mus musculus [4] = test: Toxicity in C57 mouse at 10 to 100 mg/kg, po administered qd measured up to 28 days; assay type: organism-based; conditions: in vivo, 672 h
[5] = AUC in Sprague-Dawley rat at 10 mg/kg, iv by UFLC-MS/MS analysis; assay type: ADME, organism-based; conditions: in vivo
Mus musculus [6] = test: Antifibrotic activity in BLM-induced chronic pulmonary fibrosis C57 mouse model assessed as increase in survival rate administered qd measured up to 28 days; assay type: functional, organism-based
[7] = Half life in Beagle dog […] at 20 mg/kg, iv by UFLC-MS/MS analysis; assay type: ADME, organism-based, Canis lupus familiaris; conditions: in vivo
[8] = Oral bioavailability in Beagle dog […] at 20 mg/kg administered via gavage by UFLC-MS/MS analysis; assay type: ADME, organism-based, Canis lupus familiaris; conditions: in vivo
[9] = Oral bioavailability in Sprague-Dawley rat at 10 mg/kg administered via gavage by UFLC-MS/MS analysis; assay type: ADME, organism-based; conditions: in vivo
[10] = Half life in Sprague-Dawley rat at 10 mg/kg, iv by UFLC-MS/MS analysis; assay type: ADME, organism-based; conditions: in vivo
[11] = target: Mast/stem cell growth factor receptor Kit (Homo sapiens, UniProt P10721); test: Inhibition of recombinant c-KIT (unknown origin) by off-chip mobility shift assay
[12] = Half life in CD1 mouse at 50 mg/kg, iv by UFLC-MS/MS analysis; assay type: ADME, organism-based; conditions: in vivo
[13] = Oral bioavailability in CD1 mouse at 50 mg/kg administered via gavage by UFLC-MS/MS analysis; assay type: ADME, organism-based; conditions: in vivo
[14] = AUC in CD1 mouse at 50 mg/kg, iv by UFLC-MS/MS analysis; assay type: ADME, organism-based; conditions: in vivo
[15] = AUC in Beagle dog […] at 20 mg/kg, iv by UFLC-MS/MS analysis; assay type: ADME, organism-based, Canis lupus familiaris; conditions: in vivo

Sequence of Voltage-gated inwardly rectifying potassium channel KCNH2 (Q12809 whole entry): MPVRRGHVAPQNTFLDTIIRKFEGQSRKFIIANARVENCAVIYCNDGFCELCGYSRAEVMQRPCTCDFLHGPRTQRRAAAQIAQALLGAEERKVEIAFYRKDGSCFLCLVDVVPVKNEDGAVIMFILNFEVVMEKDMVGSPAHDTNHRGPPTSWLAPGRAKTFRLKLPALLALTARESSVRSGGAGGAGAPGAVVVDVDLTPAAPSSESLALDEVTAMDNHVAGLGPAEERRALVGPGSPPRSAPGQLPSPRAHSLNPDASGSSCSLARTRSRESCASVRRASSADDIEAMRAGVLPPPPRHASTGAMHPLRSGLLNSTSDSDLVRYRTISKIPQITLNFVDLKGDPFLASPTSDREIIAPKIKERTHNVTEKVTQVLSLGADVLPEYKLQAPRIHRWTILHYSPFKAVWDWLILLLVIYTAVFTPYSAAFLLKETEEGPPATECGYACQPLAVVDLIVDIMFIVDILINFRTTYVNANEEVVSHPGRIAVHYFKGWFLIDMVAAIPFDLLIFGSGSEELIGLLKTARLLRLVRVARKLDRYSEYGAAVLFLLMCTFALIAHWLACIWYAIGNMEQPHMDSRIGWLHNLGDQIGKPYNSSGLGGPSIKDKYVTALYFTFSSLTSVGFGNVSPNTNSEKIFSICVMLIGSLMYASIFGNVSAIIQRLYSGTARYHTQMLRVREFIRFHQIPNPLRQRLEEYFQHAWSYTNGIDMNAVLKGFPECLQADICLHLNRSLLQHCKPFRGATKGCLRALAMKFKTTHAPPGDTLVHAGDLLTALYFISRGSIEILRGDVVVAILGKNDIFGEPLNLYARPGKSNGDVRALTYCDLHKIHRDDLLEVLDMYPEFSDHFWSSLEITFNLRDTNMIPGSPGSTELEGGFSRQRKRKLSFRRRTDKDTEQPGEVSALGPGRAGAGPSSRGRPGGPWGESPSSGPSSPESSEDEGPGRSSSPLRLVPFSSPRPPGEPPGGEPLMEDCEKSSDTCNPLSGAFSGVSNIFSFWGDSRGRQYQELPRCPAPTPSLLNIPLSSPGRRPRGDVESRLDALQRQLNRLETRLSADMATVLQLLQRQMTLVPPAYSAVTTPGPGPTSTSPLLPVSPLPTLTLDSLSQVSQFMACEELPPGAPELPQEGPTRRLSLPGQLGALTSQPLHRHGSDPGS
Sequence of Platelet-derived growth factor receptor beta (P09619 whole entry): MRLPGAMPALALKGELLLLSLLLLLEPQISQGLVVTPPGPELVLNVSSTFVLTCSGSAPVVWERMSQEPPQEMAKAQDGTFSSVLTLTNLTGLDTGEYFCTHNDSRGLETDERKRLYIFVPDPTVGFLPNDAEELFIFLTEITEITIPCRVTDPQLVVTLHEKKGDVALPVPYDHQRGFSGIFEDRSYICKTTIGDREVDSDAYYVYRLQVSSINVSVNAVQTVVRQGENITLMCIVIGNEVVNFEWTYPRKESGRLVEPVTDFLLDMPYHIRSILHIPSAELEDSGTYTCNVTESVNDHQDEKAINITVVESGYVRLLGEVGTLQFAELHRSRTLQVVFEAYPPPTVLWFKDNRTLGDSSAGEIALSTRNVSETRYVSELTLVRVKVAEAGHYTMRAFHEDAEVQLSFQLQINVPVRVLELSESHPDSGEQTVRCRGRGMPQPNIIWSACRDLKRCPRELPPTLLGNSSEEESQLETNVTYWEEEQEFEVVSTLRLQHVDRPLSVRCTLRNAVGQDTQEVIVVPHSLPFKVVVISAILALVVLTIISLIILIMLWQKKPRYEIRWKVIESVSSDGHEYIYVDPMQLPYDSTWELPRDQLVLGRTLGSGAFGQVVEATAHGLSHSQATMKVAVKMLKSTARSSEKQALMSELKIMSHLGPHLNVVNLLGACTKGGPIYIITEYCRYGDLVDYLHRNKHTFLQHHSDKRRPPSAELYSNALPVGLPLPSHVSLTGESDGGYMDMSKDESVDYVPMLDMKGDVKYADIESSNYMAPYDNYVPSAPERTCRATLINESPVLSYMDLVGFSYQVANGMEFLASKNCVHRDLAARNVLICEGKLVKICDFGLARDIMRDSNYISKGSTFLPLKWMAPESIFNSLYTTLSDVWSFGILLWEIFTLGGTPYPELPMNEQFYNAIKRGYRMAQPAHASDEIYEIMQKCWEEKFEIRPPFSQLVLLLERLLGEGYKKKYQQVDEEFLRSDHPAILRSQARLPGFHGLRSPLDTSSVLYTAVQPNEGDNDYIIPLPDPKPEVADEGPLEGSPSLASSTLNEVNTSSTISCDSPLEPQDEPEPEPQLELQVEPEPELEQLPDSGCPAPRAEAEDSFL
Sequence of Mast/stem cell growth factor receptor Kit (P10721 whole entry): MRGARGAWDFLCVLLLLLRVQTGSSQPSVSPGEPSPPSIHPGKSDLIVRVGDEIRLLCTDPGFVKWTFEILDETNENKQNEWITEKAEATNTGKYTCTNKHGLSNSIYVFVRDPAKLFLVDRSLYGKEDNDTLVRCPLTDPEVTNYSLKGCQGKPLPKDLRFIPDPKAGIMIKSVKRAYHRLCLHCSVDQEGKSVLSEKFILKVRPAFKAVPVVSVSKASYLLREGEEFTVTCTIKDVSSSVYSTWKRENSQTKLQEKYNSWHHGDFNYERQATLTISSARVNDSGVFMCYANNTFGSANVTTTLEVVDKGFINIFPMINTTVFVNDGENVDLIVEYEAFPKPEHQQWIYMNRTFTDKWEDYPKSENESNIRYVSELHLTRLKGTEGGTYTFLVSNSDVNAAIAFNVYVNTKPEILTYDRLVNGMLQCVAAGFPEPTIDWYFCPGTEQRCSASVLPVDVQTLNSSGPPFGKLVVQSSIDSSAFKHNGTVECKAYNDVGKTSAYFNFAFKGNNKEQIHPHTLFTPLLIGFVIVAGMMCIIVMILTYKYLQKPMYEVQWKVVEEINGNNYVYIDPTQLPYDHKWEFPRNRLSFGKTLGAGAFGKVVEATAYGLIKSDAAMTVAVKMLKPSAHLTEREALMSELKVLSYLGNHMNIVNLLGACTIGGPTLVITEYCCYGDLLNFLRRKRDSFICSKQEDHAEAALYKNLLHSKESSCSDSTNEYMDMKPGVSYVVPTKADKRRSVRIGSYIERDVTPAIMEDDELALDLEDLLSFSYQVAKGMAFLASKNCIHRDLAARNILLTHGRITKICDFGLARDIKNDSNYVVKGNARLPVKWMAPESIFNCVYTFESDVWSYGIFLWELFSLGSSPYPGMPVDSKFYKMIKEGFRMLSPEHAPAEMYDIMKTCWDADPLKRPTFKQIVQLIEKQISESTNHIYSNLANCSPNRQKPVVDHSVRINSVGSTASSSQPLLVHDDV

With `COC(=O)c1ccc2c(c1)NC(=O)/C2=C(\Nc1ccc2c(c1)N(C(=O)Cn1cccn1)CC2)c1ccccc1` as the compound, how does the pIC50 [1] read?
The pIC50 was 7.62.

And the pIC50 [2]?
The pIC50 was less than 7.52.

With `CN1CCN(CC(=O)N(C)c2ccc(N/C(=C3\C(=O)Nc4cc(OC(F)(F)F)ccc43)c3ccccc3)cc2)CC1` as the compound, how does the pIC50 [1] read?
The pIC50 was 7.57.

With `COC(=O)c1ccc2c(c1)NC(=O)/C2=C(\Nc1ccc2c(c1)N(C(=O)CN(C)C)CC2)c1ccccc1` as the compound, how does the pIC50 [1] read?
The pIC50 was 7.82.

With `COC(=O)c1ccc2c(c1)NC(=O)/C2=C(\Nc1ccc2c(c1)N(C(=O)CN1CCCC1=O)CC2)c1ccccc1` as the compound, how does the pIC50 [1] read?
The pIC50 was 7.72.

What about the pIC50 [2] of the same compound?
Its pIC50 is less than 7.52.

With `COC(=O)c1ccc2c(c1)NC(=O)/C2=C(\Nc1ccc2c(c1)N(C(=O)Cn1cncn1)CC2)c1ccccc1` as the compound, how does the pIC50 [1] read?
Its pIC50 is 7.82.

What about the pIC50 [2] of the same compound?
The pIC50 was less than 7.52.

With `CN1CCN(CC(=O)N(C)c2ccc(N/C(=C3\C(=O)Nc4cc(-c5ncno5)ccc43)c3ccccc3)cc2)CC1` as the compound, how does the pIC50 [1] read?
The pIC50 was 8.35.

With `COC(=O)c1ccc2c(c1)NC(=O)/C2=C(\Nc1ccc2c(c1)N(C(=O)CN1CC(C)OC(C)C1)CC2)c1ccccc1` (stereo unspecified) as the compound, how does the pIC50 [1] read?
Its pIC50 is 7.04.

And the pIC50 [2]?
Its pIC50 is less than 7.52.

With `CN1CCN(CC(=O)N(C)c2ccc(N/C(=C3\C(=O)Nc4cc(-c5cnco5)ccc43)c3ccccc3)cc2)CC1` as the compound, how does the pIC50 [1] read?
The pIC50 was 7.47.

With `COC(=O)c1ccc2c(c1)NC(=O)/C2=C(\Nc1ccc(N2C(=O)CC[C@@H]2CN2CCN(C)CC2)cc1)c1ccccc1` as the compound, how does the pIC50 [1] read?
Its pIC50 is 8.49.

With `CN1CCN(CC(=O)N(C)c2ccc(N/C(=C3\C(=O)Nc4cc(-c5ccco5)ccc43)c3ccccc3)cc2)CC1` as the compound, how does the pIC50 [1] read?
Its pIC50 is 7.92.

With `CN1CCN(CC(=O)N(C)c2ccc(N/C(=C3\C(=O)Nc4cc(-c5nnn(C)n5)ccc43)c3ccccc3)cc2)CC1` as the compound, how does the pIC50 [1] read?
Its pIC50 is 7.89.

With `COC(=O)c1ccc2c(c1)NC(=O)/C2=C(\Nc1ccc(N2C(=O)CC[C@H]2CN2CCN(C)CC2)cc1)c1ccccc1` as the compound, how does the pIC50 [1] read?
Its pIC50 is 8.37.

With `CN1CCN(CC(=O)N(C)c2ccc(N/C(=C3\C(=O)Nc4cc(-c5ncon5)ccc43)c3ccccc3)cc2)CC1` as the compound, how does the pIC50 [1] read?
The pIC50 was 8.28.

And the Activity (Mus musculus [3])?
The Activity was “Toxic”.

With `COC(=O)c1ccc2c(c1)NC(=O)/C2=C(\Nc1ccc(N(C)C(=O)CN2CCN(C)CC2)cc1)c1ccccc1` [NINTEDANIB] as the compound, how does the pIC50 [2] read?
Its pIC50 is 8.59.

With `CN1CCN(CC(=O)N(C)c2ccc(N/C(=C3\C(=O)Nc4cc(-n5nccn5)ccc43)c3ccccc3)cc2)CC1` as the compound, how does the pIC50 [1] read?
Its pIC50 is 8.82.

Which Activity (Mus musculus [4]) does the source give for `COC(=O)c1ccc2c(c1)NC(=O)/C2=C(\Nc1ccc2c(c1)N(C(=O)CN1CCOCC1)CC2)c1ccccc1` here?
The Activity was “Non-Toxic”.

What about the AUC [5] of the same compound?
The AUC was 6410 ng·h/mL.

What about the Activity (Mus musculus [6]) of the same compound?
The Activity was “Dose-dependent effect”.

What about the half-life [7] of the same compound?
Its half-life is 3.3 h.

And the pIC50 [1]?
The pIC50 was 7.60.

And the bioavailability [8]?
The bioavailability was 29%.

And the bioavailability [9]?
Its bioavailability is 68%.

What about the half-life [10] of the same compound?
Its half-life is 4.8 h.

What about the pIC50 [11] of the same compound?
The pIC50 was 8.00.

What about the half-life [12] of the same compound?
Its half-life is 4.3 h.

What about the bioavailability [13] of the same compound?
Its bioavailability is 51%.

And the AUC [14]?
The AUC was 17000 ng·h/mL.

And the pIC50 [2]?
The pIC50 was less than 7.52.

And the AUC [15]?
The AUC was 2960 ng·h/mL.

With `COC(=O)c1ccc2c(c1)NC(=O)/C2=C(\Nc1ccc(N2CCC(CN3CCN(C)CC3)C2=O)cc1)c1ccccc1` (stereo unspecified) as the compound, how does the pIC50 [1] read?
The pIC50 was 7.35.

With `COC(=O)c1ccc2c(c1)NC(=O)/C2=C(\Nc1ccc(N2C(=O)CC[C@@H]2CN(C)C)cc1)c1ccccc1` as the compound, how does the pIC50 [1] read?
The pIC50 was 7.85.
